Results reported in patent publication US20250034170A1, “SMALL MOLECULE MODULATORS OF GLUCOCEREBROSIDASE ACTIVITY AND USES THEREOF” (Vanqua Bio, Inc., priority 2021, published 2025).

Target: T1, GCase (Homo sapiens, UniProt P04062)
T1 construct: endogenous in cells; host or cells: HeLa cells
T1 sequence (P04062 40-536): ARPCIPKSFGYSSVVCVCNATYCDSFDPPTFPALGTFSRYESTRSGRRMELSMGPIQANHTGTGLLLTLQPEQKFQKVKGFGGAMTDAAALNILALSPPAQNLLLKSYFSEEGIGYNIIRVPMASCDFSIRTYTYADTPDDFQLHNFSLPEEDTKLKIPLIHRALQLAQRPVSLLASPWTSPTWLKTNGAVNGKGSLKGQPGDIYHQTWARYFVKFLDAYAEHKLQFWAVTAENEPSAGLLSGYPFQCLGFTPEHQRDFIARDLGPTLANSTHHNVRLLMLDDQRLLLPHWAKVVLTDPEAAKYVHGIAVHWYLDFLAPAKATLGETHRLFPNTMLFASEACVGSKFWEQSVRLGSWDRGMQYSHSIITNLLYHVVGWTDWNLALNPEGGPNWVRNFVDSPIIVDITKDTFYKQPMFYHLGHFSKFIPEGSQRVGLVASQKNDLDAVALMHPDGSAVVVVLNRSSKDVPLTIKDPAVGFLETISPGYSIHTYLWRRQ
Assay: activation of GCase in a live cell PFB assay in HELA cells
Assay type: cell-based
Description: Exemplary compounds were evaluated for activation of GCase in a live cell PFB assay in HELA cells (essentially as described in Ysselstein et al., “LRRK2 kinase activity regulates lysosomal glucocerebrosidase in neurons derived from Parkinson's disease patients” Nature Communications (2019) 10:5570). […] EC50 ranges: A: <10 μM; B: >10-50 μM; C: >50-100 μM; D: >100 μM.

[1] = activation of GCase, EC50 ranges

SMILES	EC50 [1]	EC50 (EC50 given as range classes)
O=C1CC2(CCN(c3cnc4cnn(CC(F)F)c4n3)CC2)CN1Cc1ccc(C(F)(F)F)cc1 [Cmpd 443]	< 10 µM	
Cc1nc(N2CC3(CCN(c4cnc5cnn(CC(F)F)c5n4)C3)C2)c(F)c(C(F)(F)F)n1 [Cmpd 1137]	50 to 100 µM	
COc1ncc(N2CCC3(CCN(c4cnc5cnn(CC(F)F)c5n4)CC3)C2)c(C(F)(F)F)n1 [Cmpd 788]		10 to 50 µM
FC(F)Cn1ncc2ncc(N3CCC4(C3)CN(c3ncc(Cl)cn3)C4)nc21 [Cmpd 438]	10 to 50 µM	
FC(F)(F)Cn1ncc2ncc(N3CCC4(CCN(c5cc(C(F)(F)F)ccn5)C4)CC3)nc21 [Compound 177, 8-[1-(2,2,2-trifluoroethyl)-1H-pyrazolo[3,4-b]pyrazin-6-yl]-2-[4-(trifluoromethyl)pyridin-2-yl]-2,8-diazaspiro[4.5]decane]	50 to 100 µM	
FC(F)Cn1ncc2ncc(N3CC4(CCN(c5cc(C(F)(F)F)ccn5)C4)C3)nc21 [Compound 181, 2-[1-(2,2-difluoroethyl)-1H-pyrazolo[3,4-b]pyrazin-6-yl]-6-[4-(trifluoromethyl)pyridin-2-yl]-2,6-diazaspiro[3.4]octane]		10 to 50 µM
O=C1N(c2ccnc(C(F)(F)F)c2)CCC12CN(c1cnc3cnn(CC(F)F)c3n1)C2 [Cmpd 337]	< 10 µM	
Cn1c(N2CCC3(CN(c4ccnc(C(F)(F)F)c4)C3)C2)nc2c(cnn2CC(F)(F)F)c1=O [Cmpd 1017]		10 to 50 µM
COc1cccc(C(=O)N2CC3(CCN(c4cnc5cnn(CC(F)F)c5n4)C3)C2)c1 [Cmpd 380]		< 10 µM
Cc1nn(CC(F)F)c2nc(N3CCC4(CN(c5cnc(C(F)(F)F)nc5)C4)C3)cnc12 [Cmpd 429]		> 100 µM
Cc1ncc(N2CC3(CCN(c4ncc5cnn(C6COC6)c5n4)C3)C2)c(C(F)(F)F)n1 [Cmpd 598]		10 to 50 µM
Cc1nn(C2COC2)c2nc(N3CC4(CCN(c5ccnc(C(F)(F)F)c5)C4)C3)cnc12 [Cmpd 345]	< 10 µM	
O=C1CC2(CCN(c3cnc4cnn(CC(F)F)c4n3)CC2)CN1Cc1cncc(Cl)c1 [Cmpd 336]	10 to 50 µM	
Cc1nn(CC(F)F)c2nc(N3CCC4(CC(=O)N(c5ccnc(C(F)(F)F)c5)C4)C3)cnc12 (stereo not drawn) [Cmpd 495]	10 to 50 µM	
FC(F)Cn1ncc2ncc(N3CCC4(CCC4Oc4cccc(C(F)(F)F)n4)CC3)nc21 (stereo not drawn) [Compound 83, 7-[1-(2,2-difluoroethyl)-1H-pyrazolo[3,4-b]pyrazin-6-yl]-1-{[6-(trifluoromethyl)pyridin-2-yl]oxy}-7-azaspiro[3.5]nonane]	10 to 50 µM	
O=C(c1ccccc1OC(F)(F)F)N1CC2(CCN(c3cnc4cnn(CC(F)F)c4n3)C2)C1 [Cmpd 390]		< 10 µM
FC(F)Cn1ncc2ccc(N3CCC4(CN(c5ccnc(C(F)(F)F)c5)C4)C3)nc21 [Cmpd 1073]	< 10 µM	
CCC1N(c2cc(C(F)(F)F)ccn2)C(=O)CC12CCN(c1cnc3cnn(CC(F)F)c3n1)CC2 (stereo not drawn) [Cmpd 663]	10 to 50 µM	
O=C1CC2(CCN(c3cnc4cnn(CC(F)F)c4n3)C2)CN1c1ccc(C(F)(F)F)cn1 (stereo not drawn) [Cmpd 497]	50 to 100 µM	
O=C1CCC2(CCN(c3cnc4cnn(CC(F)F)c4n3)CC2)CN1c1ccc(C(F)(F)F)cn1 [Cmpd 294]	10 to 50 µM	
Cc1nc(N2CC3(CCN(c4cnc5cnn(CC(F)F)c5c4)C3)C2)cc(C(F)(F)F)n1 [Cmpd 636]	< 10 µM	
Cc1nc(N2CC3(CCN(c4ncc5cnn(CC(F)(F)F)c5n4)C3)C2)cc(C(F)(F)F)n1 [Cmpd 500]	> 100 µM	
CN1C(=O)N(c2ccc(C(F)(F)F)nc2)C(=O)C12CCN(c1cnc3cnn(CC(F)F)c3n1)CC2 [Cmpd 879]	< 10 µM	
O=C1CC2(CCN(c3ncccc3C(F)(F)F)CC2)CN1c1cnc2cnn(CC(F)F)c2n1 [Compound 113, 2-[1-(2,2-difluoroethyl)-1H-pyrazolo[3,4-b]pyrazin-6-yl]-8-[3-(trifluoromethyl)pyridin-2-yl]-2,8-diazaspiro[4.5]decan-3-one]	> 100 µM	
Cc1nn(CC(F)F)c2nc(N3CCC4(CCN(c5cnc(C(F)(F)F)nc5)C4)C3)ncc12 (stereo not drawn) [Cmpd 547]	10 to 50 µM	
FC(F)Cn1ncc2ncc(N3CC4(CCN(c5ccc(C(F)(F)F)nc5)C4)C3)nc21 [Compound 183, 2-[1-(2,2-difluoroethyl)-1H-pyrazolo[3,4-b]pyrazin-6-yl]-6-[6-(trifluoromethyl)pyridin-3-yl]-2,6-diazaspiro[3.4]octane]		50 to 100 µM

SMILES	EC50 [1]	EC50 (EC50 given as range classes)
FC(F)Cn1ncc2ncc(N3CCC4(CC3)CC(COc3cccnc3C(F)(F)F)C4)nc21 [Compound 89, 7-[1-(2,2-difluoroethyl)-1H-pyrazolo[3,4-b]pyrazin-6-yl]-2-({[2-(trifluoromethyl)pyridin-3-yl]oxy}methyl)-7-azaspiro[3.5]nonane]	10 to 50 µM	
FC(F)Cn1ncc2ncc(N3CC4(CC(COc5cccc(C(F)(F)F)n5)C4)C3)nc21 [Compound 134, 2-[1-(2,2-difluoroethyl)-1H-pyrazolo[3,4-b]pyrazin-6-yl]-6-({[6-(trifluoromethyl)pyridin-2-yl]oxy}methyl)-2-azaspiro[3.3]heptane]	< 10 µM	
O=C1CC2(CCN(c3cnc4cnn(CC(F)F)c4n3)CC2)CN1c1ncccc1C(F)(F)F [Cmpd 686]	> 100 µM	
FC(F)Cn1ncc2ncc(N3CC4(CC(COc5ccc(C(F)(F)F)nc5)C4)C3)nc21 [Compound 133, 2-[1-(2,2-difluoroethyl)-1H-pyrazolo[3,4-b]pyrazin-6-yl]-6-({[6-(trifluoromethyl)pyridin-3-yl]oxy}methyl)-2-azaspiro[3.3]heptane]	< 10 µM	
O=C1N(c2cnc(C(F)(F)F)nc2)C(=O)C2(CCN(c3cnc4cnn(CC(F)F)c4n3)CC2)N1Cc1cc(F)cc(F)c1 [Cmpd 819]		< 10 µM
O=C1N(c2cnc3cnn(CC(F)F)c3n2)CCC12CCN(c1ncccc1C(F)(F)F)CC2 [Compound 120, 2-[1-(2,2-difluoroethyl)-1H-pyrazolo[3,4-b]pyrazin-6-yl]-8-[3-(trifluoromethyl)pyridin-2-yl]-2,8-diazaspiro[4.5]decan-1-one]	< 10 µM	
O=C1N(c2ccc(C(F)(F)F)nc2)C(=O)C2(CCN(c3cnc4cnn(CC(F)F)c4n3)CC2)N1Cc1cc(F)cc(F)c1 [Cmpd 818]		< 10 µM
FC(F)Cn1ncc2ncc(N3CCC4(CCN(c5ccc(C(F)(F)F)nc5)CC4)CC3)nc21 [Cmpd 807]		< 10 µM
CC[C@H]1N(c2cnc(C(F)(F)F)nc2)C[C@]12CCN(c1cnc3cnn(CC(F)F)c3n1)C2 [Cmpd 1048]	10 to 50 µM	
FC(F)Cn1ncc2ncc(N3CCCC4(CCN(c5cccnc5C(F)(F)F)C4)C3)nc21 (stereo not drawn) [Compound 5, 7-[1-(2,2-difluoroethyl)-1H-pyrazolo[3,4-b]pyrazin-6-yl]-2-[2-(trifluoromethyl)pyridin-3-yl]-2,7-diazaspiro[4.5]decane]	< 10 µM	
FC(F)(F)c1cc(N2CC3(CCN(c4cncc(-c5cncs5)n4)C3)C2)ccn1 [Cmpd 1029]		< 10 µM
O=C1CC2(CCN(c3cnc4cnn(CC(F)F)c4n3)CC2)CN1Cc1ccnc(C(F)(F)F)c1 [Cmpd 362]	< 10 µM	
FC(F)(F)c1ncc(N2CCC3(CCN(c4cnc5cnn(C6COC6)c5n4)C3)C2)cn1 (stereo not drawn) [Cmpd 533]	< 10 µM	
FC(F)Cn1ncc2ncc(N3CCC4(CCC4Oc4cccnc4C(F)(F)F)CC3)nc21 (stereo not drawn) [Compound 87, 7-[1-(2,2-difluoroethyl)-1H-pyrazolo[3,4-b]pyrazin-6-yl]-1-{[2-(trifluoromethyl)pyridin-3-yl]oxy}-7-azaspiro[3.5]nonane]	< 10 µM	
Cc1nn(C2COC2)c2nc(N3CCC4(CCN(c5ccnc(C(F)(F)F)c5)C4)C3)cnc12 (stereo not drawn) [Cmpd 476]	50 to 100 µM	
COc1nn(CC(F)F)c2nc(N3CCC4(CC3)CC(=O)N(c3nccc(C(F)(F)F)n3)C4)cnc12 [Cmpd 942]	10 to 50 µM	
FC(F)Cn1ncc2cnc(N3CCC4(CN(c5ccnc(C(F)(F)F)c5)C4)C3)cc21 [Cmpd 1072]	10 to 50 µM	
Cc1nc(C(F)(F)F)ncc1N1CC2(CCN(c3cnc4cnn([C@@H]5CCOC5)c4n3)C2)C1 [Cmpd 657]	10 to 50 µM	
CCn1c(N2CCC3(CN(c4cc(C(F)(F)F)nc(C)n4)C3)C2)nc2c(cnn2CC(F)(F)F)c1=O [Cmpd 1114]	< 10 µM	
O=C1CC2(CCN(c3cnc4cnn(CC(F)F)c4n3)CC2)CN1Cc1cncc(F)c1 [Cmpd 334]	50 to 100 µM	
FC(F)(F)c1ncc(N2CC3(CCN(c4cnc5cnn(C6COC6)c5n4)C3)C2)cn1 [Cmpd 427]		10 to 50 µM
Fc1cc(F)cc(OC2CC3(CCCN(c4cnc5cnn(CC(F)(F)F)c5n4)C3)C2)c1 (stereo not drawn) [Compound 33, 2-(3,5-difluorophenoxy)-6-[1-(2,2,2-trifluoroethyl)-1H-pyrazolo[3,4-b]pyrazin-6-yl]-6-azaspiro[3.5]nonane]	10 to 50 µM	
CC1CC2(CCN(c3cnc4cnn(CC(F)F)c4n3)CC2)CN1c1ccc(C(F)(F)F)nc1 (stereo not drawn) [Cmpd 265]	10 to 50 µM	
O=C1CC2(CCN(c3cnc4cnn(CC(F)F)c4n3)C2)CCN1c1ccc(C(F)(F)F)cn1 (stereo not drawn) [Cmpd 791]		50 to 100 µM
O=C1N(c2ccc(C(F)(F)F)nc2)C(=O)C2(CCN(c3cnc4cnn(CC(F)F)c4n3)CC2)N1CCCC(F)(F)F [Cmpd 881]	< 10 µM	
